Laboratory results: patent US20230115274A1, “COMPOUNDS AND COMPOSITIONS FOR TREATING CONDITIONS ASSOCIATED WITH STING ACTIVITY” (IFM Due, Inc., priority 2019, published 2023)

These molecules were tested against T1, hSTING (Homo sapiens, UniProt Q86WV6, G230A/H232R/R293Q/R71H) (assay: STING reporter assay (luciferase) in THP1-Dual KO-IFNAR2 cells stimulated with 2′3′cGAMP). Details: 2′3′cGAMP 15 μM, 24 h, class symbols.
T1 construct: host or cells: THP1-Dual KO-IFNAR2 cells
T1 sequence (Q86WV6 whole entry R71H/G230A/H232R/R293Q): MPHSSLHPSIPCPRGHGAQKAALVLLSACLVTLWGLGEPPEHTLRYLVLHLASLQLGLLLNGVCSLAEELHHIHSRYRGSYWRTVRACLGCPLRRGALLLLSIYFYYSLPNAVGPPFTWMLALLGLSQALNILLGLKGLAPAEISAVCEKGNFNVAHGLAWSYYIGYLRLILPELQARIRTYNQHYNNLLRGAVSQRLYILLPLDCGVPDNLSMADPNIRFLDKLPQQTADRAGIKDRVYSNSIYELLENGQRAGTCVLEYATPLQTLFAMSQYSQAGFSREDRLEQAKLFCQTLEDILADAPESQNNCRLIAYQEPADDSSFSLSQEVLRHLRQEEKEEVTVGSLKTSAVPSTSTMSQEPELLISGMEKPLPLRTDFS
Type: cell-based
Procedure, shortened: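 THP1-Dual KO-IFNAR2 cells (2×10E6 cells/mL) were treated with compound at 0.0017-100 μM final plus 15 μM final 2′3′cGAMP delivered with Lipofectamine 2000. After 24 h at 37° C., secreted luciferase in supernatant was read by QUANTI-Luc luminescence and EC50 values were fitted.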
`N#Cc1cc(NC(=O)Nc2c[nH]c3cccnc23)cnc1C1CCC(F)(F)CC1` [Compound 237, 1-(5-cyano-6-(4,4-difluorocyclohexyl)pyridin-3-yl)-3-(1H-pyrrolo[3,2-b]pyridin-3-yl)urea] showed an EC50 of 1000 to 5000 nM. For `CCc1ccc2[nH]cc(NC(=O)Nc3cnc(N4CCC(F)(F)CC4)c(C)c3)c2n1` [Compound 139, 1-(6-(4,4-difluoropiperidin-1-yl)-5-methylpyridin-3-yl)-3-(5-ethyl-1H-pyrrolo[3,2-b]pyridin-3-yl)urea], the EC50 was 1000 to 5000 nM. `O=C(Nc1cc(Cl)c(N2CCC(F)(F)CC2)cn1)Nc1c[nH]c2cccnc12` [Compound 235, 1-(4-chloro-5-(4,4-difluoropiperidin-1-yl)pyridin-2-yl)-3-(1H-pyrrolo[3,2-b]pyridin-3-yl)urea] was tested, and the EC50 was 1000 to 5000 nM. Molecule `O=C(Nc1cnc(N2CCC(F)(F)CC2)c(Cl)c1)Nc1c[nH]c2ncccc12` [Compound 189, 1-(5-chloro-6-(4,4-difluoropiperidin-1-yl)pyridin-3-yl)-3-(1H-pyrrolo[2,3-b]pyridin-3-yl)urea] has an EC50 of 200 to 1000 nM. Molecule `O=C(Nc1cnc(N2CCC(F)(F)CC2)nc1)Nc1c[nH]c2ncc(F)cc12` [Compound 190, 1-(2-(4,4-difluoropiperidin-1-yl)pyrimidin-5-yl)-3-(5-fluoro-1H-pyrrolo[2,3-b]pyridin-3-yl)urea] has an EC50 of 200 to 1000 nM. For `O=C(Nc1cnc(C2CC(F)(F)C2)c(Cl)c1)Nc1c[nH]c2ncc(F)cc12` [Compound 166, 1-(5-chloro-6-(3,3-difluorocyclobutyl)pyridin-3-yl)-3-(5-fluoro-1H-pyrrolo[2,3-b]pyridin-3-yl)urea], the EC50 was 200 to 1000 nM. Molecule `O=C(Nc1ccc(C2CCCC2)nc1)Nc1c[nH]c2ncc(F)cc12` [Compound 109, 1-(6-cyclopentylpyridin-3-yl)-3-(5-fluoro-1H-pyrrolo[2,3-b]pyridin-3-yl)urea] has an EC50 of 200 to 1000 nM. `COCCOc1ccc2[nH]cc(NC(=O)Nc3cnc(N4CCC(F)(F)CC4)c(Cl)c3)c2n1` [Compound 218, 1-(5-chloro-6-(4,4-difluoropiperidin-1-yl)pyridin-3-yl)-3-(5-(2-methoxyethoxy)-1H-pyrrolo[3,2-b]pyridin-3-yl)urea] gave an EC50 of 200 to 1000 nM. In the case of `O=C(Nc1ccc(C2CCC(F)(F)CC2)nc1)Nc1cn(C(=O)c2ccccc2)c2ncc(F)cc12` [Compound 121, 1-(1-benzoyl-5-fluoro-1H-pyrrolo[2,3-b]pyridin-3-yl)-3-(6-(4,4-difluorocyclohexyl)pyridin-3-yl)urea], the EC50 is reported as 200 to 1000 nM. `O=C(Nc1cnc(C2CCN(CC(F)(F)F)C2)c(Cl)c1)Nc1c[nH]c2cccnc12` (centres unmarked) [Compound 216, 1-(5-chloro-6-(1-(2,2,2-trifluoroethyl)pyrrolidin-3-yl)pyridin-3-yl)-3-(1H-pyrrolo[3,2-b]pyridin-3-yl)urea] showed an EC50 of 1000 to 5000 nM. `CC(C)n1cc(-c2cnc3[nH]cc(NC(=O)Nc4ccc(C5CCC(F)(F)CC5)nc4)c3c2)cn1` [Compound 107, 1-(6-(4,4-difluorocyclohexyl)pyridin-3-yl)-3-(5-(1-isopropyl-1H-pyrazol-4-yl)-1H-pyrrolo[2,3-b]pyridin-3-yl)urea] was tested, and the EC50 was 200 to 1000 nM. `O=C(Nc1cnc(C2CCC(F)(F)CC2)c(F)c1)Nc1c[nH]c2ncc(F)cc12` [Compound 113, 1-(6-(4,4-difluorocyclohexyl)-5-fluoropyridin-3-yl)-3-(5-fluoro-1H-pyrrolo[2,3-b]pyridin-3-yl)urea] showed an EC50 of 40 to 200 nM. `COCCOc1ccc2[nH]cc(NC(=O)Nc3ccc(C4CCC(F)(F)CC4)nc3)c2n1` [Compound 212, 1-(6-(4,4-difluorocyclohexyl)pyridin-3-yl)-3-(5-(2-methoxyethoxy)-1H-pyrrolo[3,2-b]pyridin-3-yl)urea] was tested, and the EC50 was 1000 to 5000 nM. `CC1(C)CN(c2ncc(NC(=O)Nc3c[nH]c4cccnc34)cc2Cl)CCO1` [Compound 241, 1-(5-chloro-6-(2,2-dimethylmorpholino)pyridin-3-yl)-3-(1H-pyrrolo[3,2-b]pyridin-3-yl)urea] gave an EC50 of 5000 to 100000 nM. For `O=C(Nc1cnc(N2CCCCC2)c(Cl)c1)Nc1c[nH]c2ncc(F)cc12` [Compound 196, 1-(5-chloro-6-(piperidin-1-yl)pyridin-3-yl)-3-(5-fluoro-1H-pyrrolo[2,3-b]pyridin-3-yl)urea], the EC50 was 200 to 1000 nM. Work on `O=C(Nc1ccc(C2CC(F)(F)C2)c(Cl)c1)Nc1c[nH]c2cccnc12` [Compound 219, 1-(3-chloro-4-(3,3-difluorocyclobutyl)phenyl)-3-(1H-pyrrolo[3,2-b]pyridin-3-yl)urea] yielded an EC50 of 200 to 1000 nM. `O=C(Nc1ccc(C2CCC(F)(F)CC2)nc1)Nc1c[nH]c2ccc(OCCC(F)(F)F)nc12` [Compound 204, 1-(6-(4,4-difluorocyclohexyl)pyridin-3-yl)-3-(5-(3,3,3-trifluoropropoxy)-1H-pyrrolo[3,2-b]pyridin-3-yl)urea] was tested, and the EC50 was 1000 to 5000 nM. With `CC(C)(C)OC(=O)N1CCCC(n2cc(NC(=O)Nc3ccc(C4CCC(F)(F)CC4)nc3)c3cc(F)cnc32)C1` (centres unmarked) [Compound 102, tert-butyl 3-(3-(3-(6-(4,4-difluorocyclohexyl)pyridin-3-yl)ureido)-5-fluoro-1H-pyrrolo[2,3-b]pyridin-1-yl)piperidine-1-carboxylate] the EC50 was 5000 to 100000 nM. With `O=C(Nc1cnc(N2CCC3(CC2)CC(F)(F)C3)c(Cl)c1)Nc1c[nH]c2cccnc12` [Compound 226, 1-(5-chloro-6-(2,2-difluoro-7-azaspiro[3.5]nonan-7-yl)pyridin-3-yl)-3-(1H-pyrrolo[3,2-b]pyridin-3-yl)urea] the EC50 was 200 to 1000 nM.

Same assay, conditions: 2′3′cGAMP 15 μM, 24 h, numeric bounds
In the case of `O=C(Nc1ncc(N2CCC(F)(F)CC2)cc1Cl)Nc1c[nH]c2ncc(F)cc12` [Compound 178, 1-(3-chloro-5-(4,4-difluoropiperidin-1-yl)pyridin-2-yl)-3-(5-fluoro-1H-pyrrolo[2,3-b]pyridin-3-yl)urea], the EC50 is reported as over 30000 nM. `O=C(Nc1cnn(CC2CCC(F)(F)CC2)c1)Nc1c[nH]c2cccnc12` [Compound 206, 1-(1-((4,4-difluorocyclohexyl)methyl)-1H-pyrazol-4-yl)-3-(1H-pyrrolo[3,2-b]pyridin-3-yl)urea] gave an EC50 of over 30000 nM. For `Cc1cc(N2CCC(F)(F)CC2)cnc1NC(=O)Nc1c[nH]c2ncc(F)cc12` [Compound 177, 1-(5-(4,4-difluoropiperidin-1-yl)-3-methylpyridin-2-yl)-3-(5-fluoro-1H-pyrrolo[2,3-b]pyridin-3-yl)urea], the EC50 was over 30000 nM. `Cc1cc(NC(=O)Nc2c[nH]c3ncc(F)cc23)cnc1N1CC2(COC2)C1` [Compound 159, 1-(5-fluoro-1H-pyrrolo[2,3-b]pyridin-3-yl)-3-(5-methyl-6-(2-oxa-6-azaspiro[3.3]heptan-6-yl)pyridin-3-yl)urea] gave an EC50 of over 30000 nM. For `Cn1cc(NC(=O)Nc2ccc(C3CCC(F)(F)CC3)nc2)c2cc(F)cnc21` [Compound 127, 1-(6-(4,4-difluorocyclohexyl)pyridin-3-yl)-3-(5-fluoro-1-methyl-1H-pyrrolo[2,3-b]pyridin-3-yl)urea], the EC50 was over 30000 nM. Work on `CNC1CC(n2cc(NC(=O)Nc3ccc(C4CCC(F)(F)CC4)nc3)c3cc(F)cnc32)C1` (centres unmarked) [Compound 124, 1-(6-(4,4-difluorocyclohexyl)pyridin-3-yl)-3-(5-fluoro-1-(3-(methylamino)cyclobutyl)-1H-pyrrolo[2,3-b]pyridin-3-yl)urea] yielded an EC50 of over 30000 nM. For `O=C(Nc1cnc(N2CCC(F)(F)CC2)cc1Cl)Nc1c[nH]c2ncc(F)cc12` [Compound 183, 1-(4-chloro-6-(4,4-difluoropiperidin-1-yl)pyridin-3-yl)-3-(5-fluoro-1H-pyrrolo[2,3-b]pyridin-3-yl)urea], the EC50 was over 30000 nM.
